The record followed here is patent US7507727B2, “Substituted quinobenzoxazine analogs and methods of using thereof” (Cylene Pharmaceuticals, Inc., priority 2003, dated 2009).

In the assay the target is c-Myc template DNA (c-myc quadruplex). Kind of assay: Quadruplex binding / stop assay (Taq polymerase arrest, capillary electrophoresis).
Setting [1] is: read-out: S DATA, Table 1D, stop assay data.
Where [2] appears, read: read-out: Stop Data c-Myc μM, concentration at which 50% of the DNA was arrested (arrested:full-length 1:1).

Where two headings read alike, the source gives them in different places. Bounds are passed on as bounds.

Consider `CN(C)CCCCNC(=O)c1cn2c3c(c(N4CCC(N)C4)c(F)cc3c1=O)Oc1ccccc1-2` (stereo not drawn) [compound 1624], for which the IC50 under setting [1] came out at 0.75 µM.

As for `CN(C)CCCCNc1ccc2c(=O)c(C(=O)NCCC3CCCN3C)cn3c2c1Oc1cc2ccccc2cc1-3` (stereo not drawn) [compound 1541], under setting [1], the IC50 amounted to 1.75 µM.

For the compound `CN(C)c1ccc(NC(=O)c2cn3c4c(c(N5CC[C@@H](N)C5)c(F)cc4c2=O)Oc2c-3ccc3ccccc23)cc1` [compound 82], under setting [2], the IC50 was determined as 2.5 µM.

Regarding `O=C(NCCN1CCOCC1)c1cn2c3c(c(NCCN4CCOCC4)ccc3c1=O)Oc1cc3ccccc3cc1-2` [compound 1551], under setting [1], the IC50 is more than 15 µM.

Consider `CN1CCCC1CCNC(=O)c1cn2c3c(c(NCCCO)c(F)cc3c1=O)Oc1cc3ccccc3cc1-2` (stereo not drawn) [compound 293], for which the IC50 under setting [2] was 1.75 µM.

For the compound `CC(C)(C)OC(=O)N[C@@H]1CCN(C(=O)c2cn3c4c(c(NCCN5CCOCC5)c(F)cc4c2=O)Oc2cc4ccccc4cc2-3)C1` [compound 56], under setting [2], the IC50 was found to be 2.5 µM.

`O=C(NCCCN1CCOCC1)c1cn2c3cc4oc5cc([N+](=O)[O-])ccc5[nH]c4cc3oc3c(NCCCN4CCOCC4)c(F)cc(c1=O)c32` [compound 415]: the IC50 under setting [2] came to 0.75 µM.

As to `CN1CCCC1CCNc1c(F)cc2c(=O)c(C(N)=O)cn3c2c1Oc1cc2ccccc2cc1-3` (stereo not drawn) [compound 298], the IC50 under setting [2] was found to be 1.75 µM.

As to `O=C(c1cn2c3c(c(NCC4CCNCC4)c(F)cc3c1=O)Oc1cc3ccccc3cc1-2)N1CCOCC1` [compound 44], the IC50 under setting [2] was 2.5 µM.

For the compound `CC1CCCCN1CCCNc1c(F)cc2c(=O)c(C(=O)NCCC3CCCN3C)cn3c2c1Oc1cc2ccccc2cc1-3` (stereo not drawn) [compound 1489], under setting [1], the IC50 worked out at 0.95 µM.

With `CN1CCCC1CCNC(=O)c1cn2c3c(c(NCCc4c[nH]c5ccccc45)c(F)cc3c1=O)Oc1cc3ccccc3cc1-2` (stereo not drawn) [compound 1666], under setting [1], the IC50 was 1.75 µM.

Consider `CN(C)CCCCNc1c(F)cc2c(=O)c(C(=O)NCCN3CCOCC3)cn3c2c1Oc1c-3ccc2ccccc12` [compound 141], for which the IC50 under setting [2] was 1.75 µM.

In the case of `COc1ccc2[nH]cc(CCNC(=O)c3cn4c5c(c(N6CCC(N)C6)c(F)cc5c3=O)Oc3cc5ccccc5cc3-4)c2c1` (stereo not drawn) [compound 299], under setting [2], the IC50 amounted to 1.75 µM.

Regarding `CC(C)(C)OC(=O)N[C@@H]1CCN(c2c(F)cc3c(=O)c(C(=O)NCCCCN=C(N)N)cn4c3c2Oc2cc3ccccc3cc2-4)C1` [compound 322], under setting [2], the IC50 was 1 µM.

For `CC(C)N1CCN(c2c(F)cc3c(=O)c(C(=O)NCCCCN(C)C)cn4c3c2Oc2ccccc2-4)CC1` [compound 1567], the IC50 under setting [1] is more than 15 µM.

For `C[C@@H](O)CNc1c(F)cc2c(=O)c(C(=O)NCCC3CCCN3C)cn3c2c1Oc1cc2ccccc2cc1-3` (stereo partly drawn) [compound 1682], the IC50 under setting [1] worked out at 0.75 µM.

For the compound `NC1CCN(c2c(F)cc3c(=O)c(C(=O)NCC4CC4)cn4c3c2Oc2cc3ccccc3cc2-4)C1` (stereo not drawn) [compound 1700], the IC50 under setting [1] was more than 15 µM.

For `CCCCN1CCC(CNc2c(F)cc3c(=O)c(C(=O)NCCC4CCCN4C)cn4c3c2Oc2cc3ccccc3cc2-4)CC1` (stereo not drawn) [compound 1691], under setting [1], the IC50 was found to be 1 µM.

As to `NC1CCN(c2c(F)cc3c(=O)c(C(=O)NCCCCN4CCCC4)cn4c3c2Oc2cc3ccccc3cc2-4)C1` (stereo not drawn) [compound 431], the IC50 under setting [2] turned out to be 0.75 µM.

For `CN(C)CCCCNc1c(F)cc2c(=O)c(C(=O)O)cn3c4cc5oc6cc(N)ccc6[nH]c5cc4oc1c23` [compound 21], the IC50 under setting [2] was 0.75 µM.

On to `CN(C)CCCCNc1c(F)cc2c(=O)c(C(=O)NCCCN3CCN(C)CC3)cn3c2c1Oc1c-3ccc2ccccc12` [compound 478], for which the IC50 under setting [2] stood at 0.53 µM.

Take `CCC(=O)N1CCN(c2c(F)cc3c(=O)c(C(=O)NCCN4CCCC4)cn4c3c2Oc2cc(Cl)ccc2-4)CC1` [compound 1822]: the IC50 under setting [1] came to 10 µM.

As to `N=C(N)NCCCCNC(=O)c1cn2c3c(c(NCCCN4CCOCC4)c(F)cc3c1=O)Oc1cc3ccccc3cc1-2` [compound 1650], under setting [1], the IC50 was determined as 1 µM.

`CN1CCN(CCCNC(=O)c2cn3c4cc5c(=O)c6ccccc6c(=O)c5cc4oc4c(N5CCN(C)CC5)c(F)cc(c2=O)c43)CC1` [compound 352]: under setting [2], the IC50 was 0.9 µM.

As for `O=C(NCCN1CCCC1)c1cn2c3c(c(N4CC5CCCNC5C4)c(F)cc3c1=O)Oc1ccccc1-2` (stereo not drawn) [compound 1728], the IC50 under setting [1] is more than 15 µM.

As to `CN1CCCC1CCNC(=O)c1cn2c3c(c(NCC(C)(C)CO)c(F)cc3c1=O)Oc1cc3ccccc3cc1-2` (stereo not drawn) [compound 1744], the IC50 under setting [1] was more than 15 µM.

In the case of `CN1CCCC1CCNc1ccc2c(=O)c(C(=O)NCCN3CCCC3)cn3c2c1Oc1cc2ccccc2cc1-3` (stereo not drawn) [compound 1522], the IC50 under setting [1] is 0.75 µM.

Consider `CN1CCCC1CCNC(=O)c1cn2c3c(c(N4CCC(NC(=O)OC(C)(C)C)C4)c(F)cc3c1=O)Oc1ccccc1-2` (stereo not drawn) [compound 1587], for which, under setting [1], the IC50 was more than 15 µM.

As to `CC(C)(C)OC(=O)N[C@@H]1CCN(C(=O)c2cn3c4c(c(NCCN5CCCC5)c(F)cc4c2=O)Oc2cc4ccccc4cc2-3)C1` [compound 72], the IC50 under setting [2] came out at 2.5 µM.

As to `CC(C)N1CCN(c2c(F)cc3c(=O)c(C(=O)N4CCC(N)C4)cn4c3c2Oc2ccccc2-4)CC1` (stereo not drawn) [compound 1627], the IC50 under setting [1] is more than 15 µM.

In the case of `CN1CCCC1CCNC(=O)c1cn2c3c(c(N4CCC(c5cnccn5)C4)c(F)cc3c1=O)Oc1ccc(Cl)cc1-2` (stereo not drawn) [compound 1764], the IC50 under setting [1] is 4.8 µM.

Regarding `CN1CCCC1CCNC(=O)c1cn2c3c(c(N4CCC(N5CCCCC5)CC4)c(F)cc3c1=O)Oc1cc3ccccc3cc1-2` (stereo not drawn) [compound 254], the IC50 under setting [2] turned out to be 1.75 µM.

For `CN1CCN(CCCNC(=O)c2cn3c4c(c(NCCN5CCCC5)c(F)cc4c2=O)Oc2cc4ccccc4cc2-3)CC1` [compound 71], the IC50 under setting [2] was determined as 2.5 µM.

Turning to `O=C(Nc1nnc(C(F)(F)F)s1)c1cn2c3c(c(NCCN4CCCC4)c(F)cc3c1=O)Oc1ccccc1-2` [compound 46], under setting [2], the IC50 worked out at 2.5 µM.

Turning to `CC(C)(C)OC(=O)N[C@@H]1CCN(c2c(F)cc3c(=O)c(C(=O)NCCN4CCOCC4)cn4c3c2Oc2cc3ccccc3cc2-4)C1` [compound 63], the IC50 under setting [2] was found to be 2.5 µM.

For `N=C(N)NCCCCNC(=O)c1cn2c3c(c(NCCCN4CCOCC4)c(F)cc3c1=O)Oc1cc3ccccc3cc1-2` [compound 330], the IC50 under setting [2] was found to be 1 µM.

For the compound `CN1CCCC1CCNC(=O)c1cn2c3c(c(N4CCC(n5c(=O)[nH]c6ccccc65)CC4)c(F)cc3c1=O)Oc1cc3ccccc3cc1-2` (stereo not drawn) [compound 1477], the IC50 under setting [1] is 1 µM.

As for `CCCCOCCCNc1c(F)cc2c(=O)c(C(=O)NCCC3CCCN3C)cn3c2c1Oc1cc2ccccc2cc1-3` (stereo not drawn) [compound 1659], under setting [1], the IC50 worked out at 1.75 µM.

As for `CN1CCC(N(C)c2c(F)cc3c(=O)c(C(=O)NCCC4CCCN4C)cn4c3c2Oc2cc3ccccc3cc2-4)CC1` (stereo not drawn) [compound 1486], the IC50 under setting [1] was 1.75 µM.

On to `CN1CCCC1CCNC(=O)c1cn2c3c(c(N)c(F)c(N4CC[C@H](N)C4)c3c1=O)Oc1cc3ccccc3cc1-2` (stereo partly drawn) [compound 189], for which, under setting [2], the IC50 was 1.75 µM.

For the compound `CN1CCCC1CCNc1c(F)cc2c(=O)c(C(=O)N3CC[C@H](N)C3)cn3c4cc5c(cc4oc1c23)c(=O)c1ccccc15` (stereo partly drawn) [compound 215], the IC50 under setting [2] was 1.75 µM.

As for `CN1CCCC1CCNc1c(F)cc2c(=O)c(C(=O)NCCCN3CCOCC3)cn3c4cc5oc6cc([N+](=O)[O-])ccc6[nH]c5cc4oc1c23` (stereo not drawn) [compound 553], under setting [2], the IC50 came to 0.375 µM.

In the case of `CN1CCN(CCCNC(=O)c2cn3c4cc5c(cc4oc4c(NCCC6CCCN6C)c(F)cc(c2=O)c43)c(=O)c2ccccc25)CC1` (stereo not drawn) [compound 426], the IC50 under setting [2] amounted to 0.75 µM.

Turning to `CC(C)C(=O)N1CCN(c2c(F)cc3c(=O)c(C(=O)NCCN4CCCC4)cn4c3c2Oc2cc(Cl)ccc2-4)CC1` [compound 1823], the IC50 under setting [1] was 10 µM.

Take `Nc1c(F)c(NCCCN2CCOCC2)c2c3c1c(=O)c(C(=O)N1CCOCC1)cn3-c1cc3ccccc3cc1O2` [compound 222]: the IC50 under setting [2] stood at 1.75 µM.

`CN1CCCC1CCNC(=O)c1cn2c3c(c(NC4CCS(=O)(=O)C4)c(F)cc3c1=O)Oc1cc3ccccc3cc1-2` (stereo not drawn) [compound 1749]: the IC50 under setting [1] turned out to be 1.95 µM.

As for `O=C(c1cn2c3c(c(NCCN4CCCCC4)c(F)cc3c1=O)Oc1cc3ccccc3cc1-2)N1CCOCC1` [compound 115], under setting [2], the IC50 stood at 1.75 µM.

For the compound `CN1CCCC1CCNC(=O)c1cn2c3c(c(NC4CCCNC4)c(F)cc3c1=O)Oc1cc3ccccc3cc1-2` (stereo not drawn) [compound 1490], the IC50 under setting [1] was 0.75 µM.

Regarding `NC1CCN(c2c(F)cc3c(=O)c(C(=O)NCC(O)CO)cn4c3c2Oc2cc3ccccc3cc2-4)C1` (stereo not drawn) [compound 1704], the IC50 under setting [1] was 1.75 µM.

With `CN(C)CCCCNc1c(F)cc2c(=O)c(C(=O)N3CCN(C)CC3)cn3c2c1Oc1cc2c(cc1-3)oc1ccccc12` [compound 164], the IC50 under setting [2] is 1.75 µM.

On to `CC(C)OCCNc1c(F)cc2c(=O)c(C(=O)NCCC3CCCN3C)cn3c2c1Oc1cc2ccccc2cc1-3` (stereo not drawn) [compound 1746], for which the IC50 under setting [1] is more than 15 µM.

As for `O=C(NCCN1CCOCC1)c1cn2c3cc4c(cc3oc3c(NCCCN5CCOCC5)c(F)cc(c1=O)c32)c(=O)c1ccccc14` [compound 425], under setting [2], the IC50 turned out to be 0.75 µM.

Turning to `CCN(CC)CCCC(C)NC(=O)c1cn2c3c(c(N4CC5CCCNC5C4)c(F)cc3c1=O)Oc1ccccc1-2` (stereo not drawn) [compound 1729], the IC50 under setting [1] was more than 15 µM.

As for `NC1CCN(c2c(F)cc3c(=O)c(C(=O)NCCc4ccc(O)cc4)cn4c3c2Oc2cc3ccccc3cc2-4)C1` (stereo not drawn) [compound 1707], under setting [1], the IC50 is more than 15 µM.

In the case of `CN1CCN(CCCNc2ccc3c(=O)c(C(=O)NCCN4CCOCC4)cn4c3c2Oc2cc3ccccc3cc2-4)CC1` [compound 279], the IC50 under setting [2] turned out to be 1.75 µM.

As for `CN1CCN(CCCNc2ccc3c(=O)c(C(=O)NCCN4CCCC4)cn4c3c2Oc2cc3ccccc3cc2-4)CC1` [compound 1552], the IC50 under setting [1] amounted to 0.75 µM.

For `CCOC(CCCNc1c(F)cc2c(=O)c(C(=O)NCCC3CCCN3C)cn3c2c1Oc1cc2ccccc2cc1-3)OCC` (stereo not drawn) [compound 1674], under setting [1], the IC50 is 0.75 µM.

Regarding `NC1CCN(C(=O)c2cn3c4c(c(N5CC6CCCNC6C5)c(F)cc4c2=O)Oc2cc4ccccc4cc2-3)C1` (stereo not drawn) [compound 282], the IC50 under setting [2] stood at 1.75 µM.

`CN(C)CCCCNc1c(F)cc2c(=O)c(C(=O)NCCN3CCCC3)cn3c2c1Oc1cc2ccccc2cc1-3` [compound 318]: the IC50 under setting [2] turned out to be 1 µM.

For the compound `NCc1cn2c3c(c(N4CCC(N)C4)c(F)cc3c1=O)Oc1cc3ccccc3cc1-2` (stereo not drawn) [compound 99], the IC50 under setting [2] is 2.5 µM.
